The numbers were not newly measured in article PMC11476552, “Synthesis and Preliminary Studies for In Vitro Biological Activity of Two New Water-Soluble Bis(thio)carbohydrazones and Their Copper(II) and Zinc(II) Complexes” (International Journal of Molecular Sciences, 2024), which cites them from elsewhere.

On the set-up of this series: method as in PMID 29334758. The following applies: cited from earlier work.

Each structure is given as a SMILES string.

For the molecule `S=C(N/N=C1\CCCc2cccnc21)N1CCN(c2ccccn2)CC1` [COTI-2], the “cytotoxic activity (in words)” value is on record as “nanomolar cytotoxic activity”.

In the case of `CN(C(=S)NN=C(c1ccccn1)c1ccccn1)C1CCCCC1` [DpC, di-2-pyridylketone 4-cyclohexyl-4-methyl-3-thiosemicarbazone], the “cytotoxic activity (in words)” value is “nanomolar cytotoxic activity”.
